Reference: patent US11512079B2, “Heterocycle substituted pyridine derivative antifungal agents” (Amplyx Pharmaceuticals, Inc., priority 2017, dated 2022)
In brackets after ≈: the same amount, converted by molar mass.

Legend:
Assay type in all cases: cell-based
[1] = test system: Candida albicans 90028; assay: In vitro antifungal assay (Example IX), microdilution broth, MIC; conditions: minimum inhibitory concentration (≥50% inhibition), 35° C., 40-48 h, RPMI1640
Method: Measurement of antifungal activity: Antifungal activity of the compounds was evaluated in a microdilution broth assay as per Clinical and Laboratory Standard Institute methodology for yeast (for Candida and Cryptococcus) (1) and molds (for Aspergillus and Rhizomucor) (2). Candida albicans 90028, Aspergillus fumigatus MYA3626, Rhizomucor pusillus 46342 and Cryptococcus neoformans H99 strains were obtained from American Type Culture Collection (ATCC).
Preparation of Fungal Suspension. C. albicans 90028 and C. neoformans H99 strains were streaked from frozen stocks at −80° C. onto Sabouraud Dextrose Agar (SDA) plates. These were allowed to grow for 24 h (C. albicans) and 48 h (C. neoformans) at 35° C. before using them in the assay. 5-6 individual colonies were picked and diluted into sterile water to obtain a fungal suspension. The cell density of the suspension was determined and the culture diluted with RPMI1640 medium to obtain a fungal suspension of 2.5×10^3 cells/mL. The suspension was used in the MIC measurement as described below.
Preparation of Compound Stocks and Intermediate Dilutions: The compounds were weighed and DMSO was added to prepare a 10 mg/mL stock. The solutions were mixed by vortexing and sonication at 37° C. for 5-10 mins. The resulting solutions were sterile filtered using a PTFE filter, and aliquoted (12 μL or as needed) and stored at −20° C. Intermediate compound dilutions were prepared in sterile polypropylene tubes in 100% DMSO. The compound stock solution was first diluted in DMSO to obtain a concentration of […] to 0.19 μg/mL.
MIC/MEC Measurement: 99 μL 1 of the fungal suspension in RPMI1640 prepared as above was added to each well of a 96-well round bottom assay plate. 1 μL of the intermediate compound dilutions (200-0.19 μg/mL) were added to wells of the plate. This led to a 100-fold dilution of the intermediate dilutions resulting in a final compound concentration of 2-0.0019 μg/mL in the plate. 1 μL of DMSO was added to “No drug” control wells. The solutions were mixed by shaking on a plate shaker for 10 mins and plates incubated at 35° C. for 40-48 h (C. albicans, A. fumigatus, R. pusillus) and 72 h (Cryptococcus). […] This was validated by thorough mixing and reading at 600 nm on a microplate reader. The minimum concentration that led to shortening of hyphae as compared to hyphal growth in DMSO control wells was determined as the minimum effective concentration (MEC) for A. fumigatus and R. pusillus (as read for echinocandins). The use of the MIC and MEC endpoints against yeasts and molds, respectively has been described by Pfaller M A, Duncanson F, Messer S A, Moet G J, Jones R N, Castanheira M. Antimicrob Agents Chemother. 2011. 55(11):5155-8. In vitro activity of a novel broad-spectrum antifungal, E1210, tested against Aspergillus spp. determined by CLSI and EUCAST broth microdilution methods. Results are shown in Table 2, and the letters indicate the following ranges in μg/mL: […]

[2] = test system: Rhizomucor pusillus 46342; assay: In vitro antifungal assay (Example IX), microdilution broth, MEC; conditions: minimum effective concentration (shortening of hyphae), 35° C., 40-48 h, RPMI1640
Method: (§1) Measurement of antifungal activity: […] Candida albicans 90028, Aspergillus fumigatus MYA3626, Rhizomucor pusillus 46342 and Cryptococcus neoformans […] strains were obtained from American Type Culture Collection (ATCC). […] (A. fumigatus) and 35° C. (R. pusillus). Water containing 1% Tween was directly added to the agar plate and gently agitated to wet and remove the Aspergillus conidia. For R. pusillus, water was added to the surface and gently massaged to wet and remove the spores. For both species, the conidia or spores and mycelial fragments were collected, followed by removal of mycelium, conidiophores and large clumps of conidia/spores. The resulting spore suspension was counted and diluted into RPMI1640 medium to adjust to a final suspension of 1-2×10^4 spores/mL. The suspension was used in the MEC measurement as described below. […] The compounds were weighed and DMSO was added to prepare a 10 mg/mL stock. The solutions were mixed by vortexing and sonication at 37° C. for 5-10 mins. The resulting solutions were sterile filtered using a PTFE filter, and aliquoted (12 μL or as needed) and stored at -20° C. Intermediate compound dilutions were prepared in sterile polypropylene tubes in 100% DMSO. […] This was validated by thorough mixing and reading at 600 nm on a microplate reader. The minimum concentration that led to shortening of hyphae as compared to hyphal growth in DMSO control wells was determined as the minimum effective concentration (MEC) for A. fumigatus and R. pusillus (as read for echinocandins). The use of the MIC and MEC endpoints against yeasts and molds, respectively has been described by Pfaller M A, Duncanson F, Messer S A, Moet G J, Jones […]. Antimicrob Agents Chemother. 2011. 55(11):5155-8. In vitro activity of a novel broad-spectrum antifungal, […], tested against Aspergillus spp. determined by CLSI and EUCAST broth microdilution methods. Results are shown in Table 2, and the letters indicate the following ranges in μg/mL: […]

[3] = test system: Aspergillus fumigatus MYA3626; assay: as above; conditions: minimum effective concentration (shortening of hyphae), 35° C., 40-48 h, RPMI1640
Method: as §1

Row | SMILES | MIC [1] [µg/mL] | minimal effective concentration [2] [µg/mL] | minimal effective concentration [3] [µg/mL]
1 | Nc1ncccc1-c1cc(Cc2ccc(CNc3ncns3)cc2)no1 [compound 6, N-(4-((5-(2-aminopyridin-3-yl)isoxazol-3-yl)methyl)benzyl)-1,2,4-thiadiazol-5-amine] | > 1 | > 1 | > 1
2 | Nc1ncccc1-c1cc(Cc2ccc(COc3cccc4ccccc34)cc2)no1 [compound 24, 3-(3-(4-((naphthalen-1-yloxy)methyl)benzyl)isoxazol-5-yl)pyridin-2-amine] | > 1 | > 1 | > 1
3 | Nc1ncccc1-c1cc(Cc2ccc(COc3ccc(Cl)c4ccccc34)cc2)no1 [compound 25, 3-(3-(4-(((4-chloronaphthalen-1-yl)oxy)methyl)benzyl)isoxazol-5-yl)pyridin-2-amine] | > 1 | > 1 | > 1
4 | Cc1nccc(NCc2ccc(Cc3cc(-c4cccnc4N)on3)cc2)n1 [compound 33, N-(4-((5-(2-aminopyridin-3-yl)isoxazol-3-yl)methyl)benzyl)-2-methylpyrimidin-4-amine] | > 1 | > 1 | > 1
5 | Cn1cc(COc2ccc(Cc3cc(-c4cccnc4N)on3)cn2)cn1 [compound 49, 3-(3-((6-((1-methyl-1H-pyrazol-4-yl)methoxy)pyridin-3-yl)methyl)isoxazol-5-yl)pyridin-2-amine] | > 1 | > 1 | > 1
6 | c1ccc(Sc2ccc(Cn3cc(-c4cccnc4)cn3)cn2)cc1 [compound 66, 2-(phenylthio)-5-((4-(pyridin-3-yl)-1H-pyrazol-1-yl)methyl)pyridine] | 0.1 to 1 (≈ 0.29 to 2.9 µM) | > 1 | 0.1 to 1
7 | Nc1ncccc1-c1cnn(Cc2ccc(Sc3ccccc3)nc2)c1 [compound 67, 3-(1-((6-(phenylthio)pyridin-3-yl)methyl)-1H-pyrazol-4-yl)pyridin-2-amine] | 0.1 to 1 (≈ 0.278 to 2.78 µM) | > 1 | 0.1 to 1
8 | Nc1ccc(-c2cnn(Cc3ccc(OCc4ccccc4)nc3)c2)cn1 [compound 68, 5-(1-((6-(benzyloxy)pyridin-3-yl)methyl)-1H-pyrazol-4-yl)pyridin-2-amine] | 0.1 to 1 (≈ 0.28 to 2.8 µM) | > 1 | 0.1 to 1
9 | CC1=C(Oc2ccc(Cc3cc(-c4cccnc4N)on3)cn2)C(=O)C(C)O1 (stereo not drawn) [compound 71, 4-((5-((5-(2-aminopyridin-3-yl)isoxazol-3-yl)methyl)pyridin-2-yl)oxy)-2,5-dimethylfuran-3(2H)-one] | > 1 | > 1 | > 1
10 | N#Cc1ccc(COc2ccc(Cc3cc(-c4cccnc4N)on3)cn2)cc1 [compound 76, 4-(((5-((5-(2-aminopyridin-3-yl)isoxazol-3-yl)methyl)pyridin-2-yl)oxy)methyl)benzonitrile] | > 1 | 0.1 to 1 | 0.1 to 1

More lines, main results first:

Row | MIC [1] [µg/mL] | SMILES | minimal effective concentration [2] [µg/mL] | minimal effective concentration [3] [µg/mL]
11 | 0.1 to 1 (≈ 0.281 to 2.81 µM) | N#Cc1cnn(Cc2ccc(Cc3cc(-c4cccnc4N)on3)cc2)c1 [compound 3, 1-(4-((5-(2-aminopyridin-3-yl)isoxazol-3-yl)methyl)benzyl)-1H-pyrazole-4-carbonitrile] | > 1 | 0.1 to 1
12 | 0.1 to 1 (≈ 0.252 to 2.52 µM) | Nc1ncccc1-c1cc(Cc2ccc(CNc3cnc4[nH]ccc4c3)cc2)no1 [compound 7, N-(4-((5-(2-aminopyridin-3-yl)isoxazol-3-yl)methyl)benzyl)-1H-pyrrolo[2,3-b]pyridin-5-amine] | > 1 | 0.1 to 1
13 | 0.1 to 1 (≈ 0.261 to 2.61 µM) | Nc1ncccc1-c1cc(Cc2ccc(Cc3ccc4ncnn4c3)cc2)no1 [compound 13, 3-(3-(4-([1,2,4]triazolo[1,5-a]pyridin-6-ylmethyl)benzyl)isoxazol-5-yl)pyridin-2-amine] | > 1 | 0.1 to 1
14 | 0.1 to 1 (≈ 0.258 to 2.58 µM) | CC(C)Cn1cc(Cc2ccc(Cc3cc(-c4cccnc4N)on3)cc2)cn1 [compound 16, 3-(3-(4-((1-isobutyl-1H-pyrazol-4-yl)methyl)benzyl)isoxazol-5-yl)pyridin-2-amine] | 0.1 to 1 | 0.1 to 1
15 | 0.1 to 1 (≈ 0.291 to 2.91 µM) | Nc1ncccc1-c1cc(Cc2ccc(Cc3cncnc3)cc2)no1 [compound 21, 3-(3-(4-(pyrimidin-5-ylmethyl)benzyl)isoxazol-5-yl)pyridin-2-amine] | > 1 | 0.1 to 1
16 | 0.1 to 1 (≈ 0.268 to 2.68 µM) | Cc1cnc(COc2ccc(Cc3cc(-c4cccnc4N)on3)cc2)nc1 [compound 29, 3-(3-(4-((5-methylpyrimidin-2-yl)methoxy)benzyl)isoxazol-5-yl)pyridin-2-amine] | > 1 | 0.1 to 1
17 | 0.1 to 1 (≈ 0.296 to 2.96 µM) | Nc1ncccc1-c1cc(Cc2ccc(OCC3COC3)nc2)no1 [compound 44, 3-(3-((6-(oxetan-3-ylmethoxy)pyridin-3-yl)methyl)isoxazol-5-yl)pyridin-2-amine] | > 1 | > 1
18 | 0.1 to 1 (≈ 0.276 to 2.76 µM) | Cn1ccc(COc2ccc(Cc3cc(-c4cccnc4N)on3)cn2)n1 [compound 45, 3-(3-((6-((1-methyl-1H-pyrazol-3-yl)methoxy)pyridin-3-yl)methyl)isoxazol-5-yl)pyridin-2-amine] | > 1 | 0.1 to 1
19 | 0.1 to 1 (≈ 0.276 to 2.76 µM) | Cc1occc1COc1ccc(Cc2cc(-c3cccnc3N)on2)cn1 [compound 52, 3-(3-((6-((2-methylfuran-3-yl)methoxy)pyridin-3-yl)methyl)isoxazol-5-yl)pyridin-2-amine] | > 1 | 0.1 to 1
20 | 0.1 to 1 (≈ 0.256 to 2.56 µM) | CC(Oc1ccc(Cc2cc(-c3cccnc3N)on2)cn1)c1ccccc1F (stereo not drawn) [compound 56, 3-(3-((6-(1-(2-fluorophenyl)ethoxy)pyridin-3-yl)methyl)isoxazol-5-yl)pyridin-2-amine] | > 1 | 0.1 to 1
21 | 0.1 to 1 (≈ 0.277 to 2.77 µM) | Nc1ncccc1-c1cc(Cc2ccc(Nc3cccc(F)c3)nc2)no1 [compound 59, 5-((5-(2-aminopyridin-3-yl)isoxazol-3-yl)methyl)-N-(3-fluorophenyl)pyridin-2-amine] | > 1 | 0.1 to 1
